Assay results published in ChEMBL document CHEMBL3817778, “Small molecules targeting Mcl-1: the search for a silver bullet in cancer therapy” (Medchemcomm, 2016).

What was measured:
[1] = target: T1, Induced myeloid leukemia cell differentiation protein Mcl-1 (Homo sapiens, UniProt Q07820); assay: Inhibition of 5-FAM-labeled Bid BH3 peptide binding to MCL1 (unknown origin) by fluorescence polarization assay
[2] = target: T1, Induced myeloid leukemia cell differentiation protein Mcl-1; assay: Inhibition of 5-FAM-labeled Bid BH3 peptide binding to MCL1 (unknown origin) at 50 uM by fluorescence polarization assay relative to control
[3] = target: T1, Induced myeloid leukemia cell differentiation protein Mcl-1; assay: Inhibition of fluorescein-labeled Bid BH3 peptide (79 to 99 residues) binding to His-tagged MCL1 (171 to 327 residues) (unknown origin) expressed in Escherichia coli Bl21(DE3) cells incubated for 3 hrs by fluorescence polarization assay
MEF [4] = assay: Induction of apoptosis in MEF assessed as dead cells at 10 uM after 24 hrs by Annexin V/propidium iodide staining based method relative to control; assay type: functional, Mus musculus
MEF [5] = assay: Induction of apoptosis in […] double knock out MEF assessed as dead cells at 10 uM after 24 hrs by Annexin V/propidium iodide staining based method relative to control; assay type: functional, Mus musculus
[6] = Inhibition of FITC-labeled Bid BH3 peptide binding to GST-tagged MCL1 harboring N-terminal and C-terminal point mutant (unknown origin) expressed in Escherichia coli Bl21(DE3) cells by fluorescence polarization assay; set-up: species or system Homo sapiens
[7] = target: T1, Induced myeloid leukemia cell differentiation protein Mcl-1; assay: Inhibition of FITC-labeled Bid BH3 peptide binding to human GST-tagged MCL1 lacking C-terminal transmembrane domain expressed in Escherichia coli XL-1 Blue cells preincubated for 10 mins followed by FITC-labeled Bid BH3 peptide addition measured after 20 mins by fluorescence polarization assay
[8] = target: T2, Apoptosis regulator Bcl-2 (Homo sapiens, UniProt P10415); assay: Inhibition of FITC-labeled Bid BH3 peptide binding to human GST-tagged BCL2 lacking C-terminal transmembrane domain expressed in Escherichia coli XL-1 Blue cells preincubated for 10 mins followed by FITC-labeled Bid BH3 peptide addition measured after 20 mins by fluorescence polarization assay
[9] = target: Induced myeloid leukemia cell differentiation protein Mcl-1 homolog (Mus musculus, UniProt P97287); assay: Inhibition of biotinylated Bim BH3 peptide binding to recombinant GST-tagged mouse MCL1 with N-terminal truncation of 151 residues and C-terminal truncation of 23 residues expressed in Escherichia coli BL21(DE3) cells preincubated for 1 hr followed by biotinylated Bim BH3 peptide addition measured after 1 hr by ELISA
Bcl-2-like protein 1 = Bcl-2-like protein 1 (Homo sapiens, UniProt Q07817); assay: (§1) Inhibition of FAM-labeled Bim BH3 peptide binding to recombinant human N-terminal GST-tagged Bcl-XL (1 to 212 residues) expressed in Escherichia coli BL21(DE3) cells preincubated for 30 mins followed by FAM-labeled Bim BH3 peptide addition measured after 20 mins by fluorescence polarization assay
[10] = target: T2, Apoptosis regulator Bcl-2; assay: as §1, with “Bid” for “Bim”, “BCL2” for “Bcl-XL”, “34/ 92 to 207” for “212”, “residues) fused with human Bcl-XL” for “residues)”
[11] = as §1, with “Bid” for “Bim”, “recombinant N-terminal His8-tagged” for “recombinant”, “MCL1 (209” for “N-terminal GST-tagged Bcl-XL (1”, “327 residues)/mouse MCL1 (152 to189” for “212”
[12] = target: T1, Induced myeloid leukemia cell differentiation protein Mcl-1; assay: Binding affinity to MCL1 (unknown origin) incubated for 30 mins by TR-FRET assay
[13] = target: T2, Apoptosis regulator Bcl-2; assay: Inhibition of FITC-labeled Bim BH3 peptide binding to GST-tagged BCL2 (unknown origin) preincubated for 2 mins followed by FITC-labeled Bim BH3 peptide addition measured after 10 mins by fluorescence polarization assay
[14] = target: T1, Induced myeloid leukemia cell differentiation protein Mcl-1; assay: Inhibition of biotinylated Bim BH3 peptide binding to GST-tagged MCL1 (unknown origin) preincubated for 15 mins followed by biotinylated Bim BH3 peptide addition measured after 2 hrs by ELISA
[15] = target: T1, Induced myeloid leukemia cell differentiation protein Mcl-1; assay: Inhibition of FAM-labeled Bid BH3 peptide binding to human recombinant MCL1 by fluorescence polarization assay relative to control
[16] = target: T2, Apoptosis regulator Bcl-2; assay: Inhibition of FAM-labeled Bid BH3 peptide binding to human recombinant BCL2 by fluorescence polarization assay relative to control

T2 sequence (P10415 whole entry, the tested form may be a part): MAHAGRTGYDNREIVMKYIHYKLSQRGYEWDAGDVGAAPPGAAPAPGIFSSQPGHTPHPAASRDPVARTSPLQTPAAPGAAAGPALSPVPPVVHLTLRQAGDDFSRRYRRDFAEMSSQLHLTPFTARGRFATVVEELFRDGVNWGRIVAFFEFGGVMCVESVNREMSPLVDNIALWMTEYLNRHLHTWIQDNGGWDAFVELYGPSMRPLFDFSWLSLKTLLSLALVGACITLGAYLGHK
T1 sequence (Q07820 whole entry): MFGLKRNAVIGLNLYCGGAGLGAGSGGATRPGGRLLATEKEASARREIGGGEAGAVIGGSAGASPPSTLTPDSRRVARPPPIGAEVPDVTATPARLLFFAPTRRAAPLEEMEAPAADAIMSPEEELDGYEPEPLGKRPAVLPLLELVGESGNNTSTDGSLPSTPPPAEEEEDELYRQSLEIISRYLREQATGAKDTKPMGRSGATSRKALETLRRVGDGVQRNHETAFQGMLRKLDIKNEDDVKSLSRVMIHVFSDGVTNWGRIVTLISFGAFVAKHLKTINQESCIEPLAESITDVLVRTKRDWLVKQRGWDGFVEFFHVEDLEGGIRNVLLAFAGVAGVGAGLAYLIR
Bcl-2-like protein 1, sequence (Q07817 whole entry, the tested form may be a part): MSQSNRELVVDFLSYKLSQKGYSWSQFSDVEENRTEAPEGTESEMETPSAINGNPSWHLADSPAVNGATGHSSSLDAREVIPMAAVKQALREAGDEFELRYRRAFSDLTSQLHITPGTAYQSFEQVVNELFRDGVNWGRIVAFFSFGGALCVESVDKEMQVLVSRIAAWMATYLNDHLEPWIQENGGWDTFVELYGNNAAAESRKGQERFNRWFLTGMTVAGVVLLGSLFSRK
Induced myeloid leukemia cell differentiation protein Mcl-1 homolog, sequence (P97287 whole entry, the tested form may be a part): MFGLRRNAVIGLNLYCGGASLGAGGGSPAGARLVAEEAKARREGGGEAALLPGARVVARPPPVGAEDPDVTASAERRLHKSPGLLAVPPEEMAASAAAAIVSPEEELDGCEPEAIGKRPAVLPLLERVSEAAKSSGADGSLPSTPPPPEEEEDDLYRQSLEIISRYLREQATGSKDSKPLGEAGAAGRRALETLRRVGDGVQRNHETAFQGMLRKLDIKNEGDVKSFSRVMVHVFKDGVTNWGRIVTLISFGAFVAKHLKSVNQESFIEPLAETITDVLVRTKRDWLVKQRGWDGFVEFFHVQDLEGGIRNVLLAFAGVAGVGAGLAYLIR

O=C(Cc1cc(O)c(O)c(O)c1)NCc1ccc(C(=O)N2CCN(Cc3ccccc3-c3ccccc3)CC2)cc1
Ki [1]: 180 nM | inhibition [2]: 66%

O=C(O)CSc1cc(NS(=O)(=O)c2ccc(Br)cc2)c2ccccc2c1O
Ki [3]: 1870 nM | Activity (MEF [4]): 60% | Activity (MEF [5]): 16%

O=C(O)CSc1cc(NS(=O)(=O)c2ccc(-c3ccc(F)cc3F)cc2)c2ccccc2c1O
IC50 [3]: 170 nM

O=C(O)CSc1cc(NS(=O)(=O)c2ccc(Oc3ccc(F)cc3)cc2)c2ccccc2c1O
IC50 [3]: 170 nM

O=C(O)CSc1cc(NS(=O)(=O)c2ccc(-c3ccc(Cl)cc3)cc2)c2ccccc2c1O
IC50 [3]: 170 nM

Cc1cs/c(=N\C2CCCCC2)n1/N=C/c1ccc(O)c(O)c1O
IC50 [6]: 4780 nM

COC1=CC(c2cc3ccccc3[nH]2)=N/C1=C\c1[nH]c(C)cc1C [OBATOCLAX]
IC50 [7]: 2900 nM | IC50 [8]: 1110 nM

O=C(c1ccccc1O)c1[nH]c(Cl)c(Cl)c1-n1c(C(=O)c2ccccc2O)cc(Cl)c1Cl
IC50 [9]: 10000 nM

CCOC(=O)C1=C(C)N=c2s/c(=C\c3cn(Cc4ccc(-c5ccccc5)cc4)c4ccccc34)c(=O)n2C1c1ccccc1 (stereo not given)
Ki (Bcl-2-like protein 1): 17 nM | Ki [10]: 530 nM | Ki [11]: 200 nM

CC1(C)CCC(CN2CCN(c3ccc(C(=O)NS(=O)(=O)c4ccc(NCC5CCOCC5)c([N+](=O)[O-])c4)c(Oc4cnc5[nH]ccc5c4)c3)CC2)=C(c2ccc(Cl)cc2)C1 [VENETOCLAX]
Ki [12]: > 444 nM

Cc1cc2c(C(C)C)c(O)c(O)cc2c(O)c1-c1c(C)cc2c(C(C)C)c(O)c(O)cc2c1O [APOGOSSYPOL]
Ki [13]: 2800 nM

O=C1c2ccc(OS(=O)(=O)C(F)(F)F)cc2Oc2c(Cl)cc(C(=O)c3ccccc3O)n2-c2c1[nH]c(Cl)c2Cl
IC50 [14]: 1400 nM

CC(C)c1ccccc1Cc1cc(C(=O)Nc2ccc(S(=O)(=O)c3ccccc3C(C)(C)C)cc2)c(O)c(O)c1O
Ki [15]: < 300 nM | Ki [16]: < 300 nM
